In US12178205B2, “Systems and methods for storing and preserving implantable devices” (Rutgers, The State University of New Jersey, priority 2016, dated 2024):

System: Staphylococcus aureus (ATCC 6538)
Assay: Antimicrobial effectiveness of zinc chloride on Staphylococcus aureus suspension (exposure, neutralization, assay for survivors)
Format: cell-based
Details: for CFU/mL of Survivors / Log10 Survivors: 37±1° C.; for Number of Survivors: duplicate plate counts; for Percent Reduction: vs test population control 4.68 × 10^5 CFU/mL; for Log10 Reduction: vs test population control Log10 5.67
Procedure: (§1) A suspension of test organism Staphylococcus aureus (ATCC 6538) was obtained by adding colonies on tryptic soy agar and 5% Sheep Blood (BAP) with incubation parameters of 35° C.-37° C., aerobic in 0.85% saline to match a 3.0 McFarland standard. The suspension was exposed to a test substance of zinc chloride at specified concentrations of 0.1%, 0.3%, and 0.5% from a 1% stock solution at specified exposure times of 10 minutes, 2 hours, 6 hours, and 24 hours at a temperature of 37±1° C. (37.2° C.). Latheen broth and 1% sodium bicarbonate (9.9 mL) were used as a neutralizer. After exposure, an aliquot of the suspension was transferred to the neutralizer and was assayed for survivors.
as §1

[1] = exposure 10 minutes, dilution (volume plated) 10^0 (0.100 mL)
[2] = exposure 10 minutes, dilution (volume plated) 10^0 (1.00 mL)

Row | Compound | CFU/mL of Survivors (exposure 10 minutes) | Log10 Survivors (exposure 10 minutes) | Number of Survivors [1] | Number of Survivors [2] | Number of Survivors (exposure 10 minutes, dilution (volume plated) 10^1 (0.100 mL)) | Percent Reduction (exposure 10 minutes) | Log10 Reduction (exposure 10 minutes) | CFU/mL of Survivors (exposure 2 hours) | Log10 Survivors (exposure 2 hours) | Percent Reduction (exposure 2 hours) [%] | Log10 Reduction (exposure 2 hours) | CFU/mL of Survivors (exposure 6 hours) | Log10 Survivors (exposure 6 hours) | Percent Reduction (exposure 6 hours) [%] | Log10 Reduction (exposure 6 hours) | CFU/mL of Survivors (exposure 24 hours) | Log10 Survivors (exposure 24 hours) | Percent Reduction (exposure 24 hours) [%] | Log10 Reduction (exposure 24 hours)
1 | [Cl-].[Cl-].[Zn+2] [0.1% Zinc Chloride, zinc chloride] | 6.8 × 10^5 CFU/mL | 5.83 | T, T | T, T | T, T | None | None | 4.9 × 10^2 CFU/mL | 2.69 | >99.8 | 2.98 | 2.3 × 10^2 CFU/mL | 2.36 | >99.9 | 3.31 | 4 × 10^1 CFU/mL | 1.60 | 99.99 | 4.07
2 | [Cl-].[Cl-].[Zn+2] [0.3% Zinc Chloride, zinc chloride] | 5.9 × 10^4 CFU/mL | 4.77 | T, T | T, T | – | 87.4% | 0.90 | 1 × 10^1 CFU/mL | 1.00 | >99.99 | 4.67 | <5 CFU/mL | <0.70 | >99.99 | >4.97 | <5 CFU/mL | <0.70 | >99.99 | >4.97
3 | [Cl-].[Cl-].[Zn+2] [0.5% Zinc Chloride, zinc chloride] | 2.9 × 10^4 CFU/mL | 4.46 | T, T | T, T | – | 93.8% | 1.21 | 1 × 10^1 CFU/mL | 1.00 | >99.99 | 4.67 | <5 CFU/mL | <0.70 | >99.99 | >4.97 | <5 CFU/mL | <0.70 | >99.99 | >4.97
